Read-outs that look alike come from different tables or passages of the source. Values belong to the compound of their own block, whether it stands above or below them.
Key:
SAPK2α = SAPK2α (Homo sapiens, UniProt Q16539); experiment: Kinase selectivity panel; assay type: biochemical; conditions: in the presence of 10 μM compound
c-Abl = c-Abl (Homo sapiens, UniProt P00519); experiment: Kinase selectivity panel; assay type: biochemical; conditions: in the presence of 10 μM compound
CDK2/cyclin E = biological target: T1, CDK2/cyclin E (Homo sapiens, UniProt P24941); experiment: CDK2/cyclin E kinase inhibition assay (histone H1, [γ-33P]ATP); assay type: biochemical; conditions: for IC50: averaged from triplicates, 15 μM ATP
T1 construct: made in house; host or cells: Sf9 insect cells (baculovirus co-infection)
Protocol: (§1) CDK1/cyclin B and CDK2/cyclin E kinases were produced in Sf9 insect cells coinfected with appropriate baculoviral constructs. The cells were harvested 70 h post infection, incubated in lysis buffer (50 mM Tris pH 7.4, 150 mM NaCl, 5 mM EDTA, 20 mM NaF, 1% Tween 20, 1 mM DTT, 0.1 mM PMSF, 0.5 μg/ml leupeptine, 1 μg/ml aprotonine) for 30 min on ice and the soluble fraction was recovered by centrifugation at 20.000 g for 10 min. The enzymes were purified on NiNTA column (Qiagen), stored at 4° C. and used within a week. To carry out the enzyme inhibition assays under linear conditions, the final point test system for kinase activity measurement was used. Kinase was added to reaction mixture in such a way as to obtain linear activity with respect to the concentration of enzyme and with respect to time. For determination of kinase inhibition the reaction mixture contained 1 mg/ml histone H1 (type III-S, Sigma) in the presence of 15 μM ATP, 0.05 μCi [γ-^33P]ATP and the tested compound in a final volume of 10 μl; all in reaction buffer (50 mM HEPES, 10 mM MgCl2, 5 mM EGTA, 10 mM 2-glycerolphosphate, 1 mM NaF, 1 mM DTT, pH 7.4). After 20 min incubation, the reactions were stopped by the addition of 5 μl of a 3% H3PO4, aliquots were spotted on P-81 phosphocellulose (Whatman, USA) that was subsequently washed 3× with 5% H3PO4 and finally air dried. The measurements of kinase inhibition employed digital image analyzer BAS-1800 (Fujifilm, Japan). Kinase activity was usually expressed as a percentage of maximum activity. […] For the purpose of kinetic analysis, the activity was expressed as arbitrary units (AU) of digital image analyzer signal.

CDK1/cyclin B = biological target: T2, CDK1/cyclin B (Homo sapiens, UniProt P06493); experiment: CDK1/cyclin B kinase inhibition assay (histone H1, [γ-33P]ATP); assay type: biochemical; conditions: for IC50: averaged from triplicates, 15 μM ATP
T2 construct: made in house; host or cells: Sf9 insect cells (baculovirus co-infection)
T2 sequence (P06493 whole entry): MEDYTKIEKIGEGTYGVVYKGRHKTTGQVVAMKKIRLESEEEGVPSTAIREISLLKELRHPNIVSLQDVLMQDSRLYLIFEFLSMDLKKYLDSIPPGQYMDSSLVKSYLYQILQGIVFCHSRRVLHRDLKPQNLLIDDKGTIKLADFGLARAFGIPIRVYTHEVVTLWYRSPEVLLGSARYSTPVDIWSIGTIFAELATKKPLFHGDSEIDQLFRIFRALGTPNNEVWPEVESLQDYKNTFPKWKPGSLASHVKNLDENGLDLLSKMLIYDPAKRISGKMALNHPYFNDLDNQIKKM
T2 sequence (P14635 whole entry partner): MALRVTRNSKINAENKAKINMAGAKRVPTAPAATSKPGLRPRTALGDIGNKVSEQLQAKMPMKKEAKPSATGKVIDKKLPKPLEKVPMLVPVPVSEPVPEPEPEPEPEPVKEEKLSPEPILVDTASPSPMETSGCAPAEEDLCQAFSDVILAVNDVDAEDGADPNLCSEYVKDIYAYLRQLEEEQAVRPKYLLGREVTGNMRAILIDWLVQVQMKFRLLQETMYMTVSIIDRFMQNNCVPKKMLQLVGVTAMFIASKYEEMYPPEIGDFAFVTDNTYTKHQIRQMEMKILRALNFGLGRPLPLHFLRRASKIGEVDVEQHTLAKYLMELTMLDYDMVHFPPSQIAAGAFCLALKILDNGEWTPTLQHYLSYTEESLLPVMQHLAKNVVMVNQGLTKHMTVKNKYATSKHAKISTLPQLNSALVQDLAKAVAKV
Protocol: as §1

K562 cell line = experiment: Cell cycle analysis by flow cytometry; assay type: cell-based, human
Protocol: Taxol (1 μM) treated and control cells were harvested and analyzed simultaneously.
The antiproliferative activity of 4-arylazo-3,5-diaminopyrazoles was subsequently verified by flow cytometry with subconfluent and asynchronously growing K562 cell line. […] The cell cycle block in G2/M was not dominant.
After a longer incubation period (48-72 h) the cells started to die, with the some morphological features typical for apoptosis. […] The induction of apoptosis was therefore verified by the detection of a poly(ADP-ribose)polymerase (PARP) cleavage fragment. PARP is specifically cleaved as a result of activation of upstream proapoptotic caspases into 89 kDa and 27 kDa peptides.

[1] = tested on: poly(ADP-ribose)polymerase (PARP) cleavage fragment; experiment: PARP cleavage by western blot (induction of apoptosis); assay type: cell-based, human; conditions: K562 cells; FIG. 4 legend: MCF7 cells, 72 h
Protocol: For direct immunoblotting, total cellular protein lysates were prepared by harvesting treated cells in Laemmli sample buffer. […] The probing with anti-PARP monoclonal antibody (clone C-2-10) diluted 1:1000 lasted for 2 h at 22° C. After washing three times in PBS-T, the membrane was incubated with a 1:1000 dilution of peroxidase conjugated rabbit antimouse immunoglobulin. After another three washes in PBS-T, peroxidase activity was detected by ECL chemiluminiscence reagents (Amersham) according to the manufacturer's instructions. After a longer incubation period (48-72 h) the cells started to die, with the some morphological features typical for apoptosis. […] The induction of apoptosis was therefore verified by the detection of a poly(ADP-ribose)polymerase (PARP) cleavage fragment. PARP is specifically cleaved as a result of activation of upstream proapoptotic caspases into 89 kDa and 27 kDa peptides.

p70S6K = p70S6K (Homo sapiens, UniProt P23443); experiment: Kinase selectivity panel; assay type: biochemical
p70S6K, sequence (P23443 whole entry): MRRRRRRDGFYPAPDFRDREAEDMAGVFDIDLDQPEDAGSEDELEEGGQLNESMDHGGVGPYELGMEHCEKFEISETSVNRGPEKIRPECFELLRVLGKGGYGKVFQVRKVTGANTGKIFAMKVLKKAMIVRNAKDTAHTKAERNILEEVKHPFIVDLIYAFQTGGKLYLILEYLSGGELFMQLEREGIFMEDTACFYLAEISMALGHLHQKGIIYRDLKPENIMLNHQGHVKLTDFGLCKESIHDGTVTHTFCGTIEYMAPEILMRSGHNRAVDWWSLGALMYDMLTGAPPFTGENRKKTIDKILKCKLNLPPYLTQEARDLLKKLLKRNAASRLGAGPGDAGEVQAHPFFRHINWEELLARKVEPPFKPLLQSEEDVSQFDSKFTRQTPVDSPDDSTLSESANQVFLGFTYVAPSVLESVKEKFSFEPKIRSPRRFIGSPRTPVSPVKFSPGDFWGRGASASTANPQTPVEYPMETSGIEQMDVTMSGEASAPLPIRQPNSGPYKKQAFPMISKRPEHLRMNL

GSK3β = GSK3β (Homo sapiens, UniProt P49841); experiment: Kinase selectivity panel; assay type: biochemical; conditions: in the presence of 10 μM compound
CDK7/cyclin H = CDK7/cyclin H (Homo sapiens, UniProt P50613); experiment: Kinase selectivity panel; assay type: biochemical; conditions: in the presence of 10 μM compound
CDK7/cyclin H, sequence (P50613 whole entry): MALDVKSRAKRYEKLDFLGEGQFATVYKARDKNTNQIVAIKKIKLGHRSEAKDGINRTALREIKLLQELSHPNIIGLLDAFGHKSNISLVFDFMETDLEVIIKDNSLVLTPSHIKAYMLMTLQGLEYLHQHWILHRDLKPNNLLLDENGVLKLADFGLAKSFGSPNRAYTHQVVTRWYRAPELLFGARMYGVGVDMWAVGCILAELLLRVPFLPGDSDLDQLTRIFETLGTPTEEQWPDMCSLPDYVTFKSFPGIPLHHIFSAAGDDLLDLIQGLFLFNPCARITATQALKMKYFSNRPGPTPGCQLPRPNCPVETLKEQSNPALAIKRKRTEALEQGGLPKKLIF
CDK7/cyclin H, sequence (P51946 whole entry partner): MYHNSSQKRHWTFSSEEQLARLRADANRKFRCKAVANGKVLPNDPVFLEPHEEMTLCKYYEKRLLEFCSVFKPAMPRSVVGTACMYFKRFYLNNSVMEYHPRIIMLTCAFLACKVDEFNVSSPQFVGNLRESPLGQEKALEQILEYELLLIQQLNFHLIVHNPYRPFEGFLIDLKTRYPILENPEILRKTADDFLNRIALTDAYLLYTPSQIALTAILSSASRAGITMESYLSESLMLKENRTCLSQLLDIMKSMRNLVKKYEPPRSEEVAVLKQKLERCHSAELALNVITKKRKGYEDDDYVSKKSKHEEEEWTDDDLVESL

MAPK1 [2] = experiment: Kinase selectivity panel; assay type: biochemical, human; conditions: in the presence of 10 μM compound
PKA = PKA (Homo sapiens, UniProt P17612); conditions: in the presence of 10 μM compound
[3] = In vitro cytotoxicity, Calcein AM, 72 h; assay type: cell-based, human; conditions: human, at 100 μM
Protocol: (§2) Tested drugs were added to the cell cultures in six different concentration and kept at 37° C. and 5% CO2 for three days.
(§3) The cells, cultured in DMEM (supplemented with 10% fetal calf serum, 4 mM glutamine, 100 IU/ml penicillin, 100 μg/ml streptomycin) in a humidified CO2 incubator at 37° C., were redistributed into 96-well microtitre plates (10.000 cells per well). After 12 h preincubation, tested compounds in six-fold dilutions were added. Treatment of cells with the tested compounds (in the 1-100 μM range) lasted for 72 h.

CK2 = CK2 (Homo sapiens, UniProt P68400); experiment: Kinase selectivity panel; assay type: biochemical; conditions: in the presence of 10 μM compound
CK2, sequence (P68400 whole entry): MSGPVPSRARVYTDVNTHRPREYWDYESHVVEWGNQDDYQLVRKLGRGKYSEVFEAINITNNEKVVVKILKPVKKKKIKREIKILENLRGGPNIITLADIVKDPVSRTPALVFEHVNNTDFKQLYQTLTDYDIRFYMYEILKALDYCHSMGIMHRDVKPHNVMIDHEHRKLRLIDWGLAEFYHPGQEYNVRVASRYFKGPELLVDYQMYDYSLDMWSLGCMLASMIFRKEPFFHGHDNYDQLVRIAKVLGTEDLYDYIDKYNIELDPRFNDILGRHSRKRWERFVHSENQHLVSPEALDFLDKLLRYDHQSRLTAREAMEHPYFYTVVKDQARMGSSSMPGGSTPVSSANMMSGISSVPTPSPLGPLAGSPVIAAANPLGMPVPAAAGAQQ

CHK1 = CHK1 (Homo sapiens, UniProt O14757); experiment: Kinase selectivity panel; assay type: biochemical; conditions: in the presence of 10 μM compound
CHK1, sequence (O14757 whole entry): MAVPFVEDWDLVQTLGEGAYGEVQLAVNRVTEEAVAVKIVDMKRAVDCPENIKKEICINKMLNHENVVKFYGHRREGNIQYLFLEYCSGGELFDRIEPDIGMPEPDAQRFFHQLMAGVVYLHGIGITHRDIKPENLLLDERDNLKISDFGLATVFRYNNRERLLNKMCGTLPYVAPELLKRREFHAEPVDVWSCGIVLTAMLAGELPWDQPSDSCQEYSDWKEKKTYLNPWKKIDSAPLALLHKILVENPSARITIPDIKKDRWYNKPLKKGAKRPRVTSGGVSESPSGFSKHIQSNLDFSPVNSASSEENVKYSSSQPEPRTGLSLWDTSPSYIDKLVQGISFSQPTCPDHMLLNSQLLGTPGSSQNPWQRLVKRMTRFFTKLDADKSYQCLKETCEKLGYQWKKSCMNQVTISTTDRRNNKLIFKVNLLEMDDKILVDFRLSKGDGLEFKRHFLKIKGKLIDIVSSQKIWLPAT

PKBα = PKBα (Homo sapiens, UniProt P31749); experiment: Kinase selectivity panel; assay type: biochemical; conditions: in the presence of 10 μM compound
PKBα, sequence (P31749 whole entry): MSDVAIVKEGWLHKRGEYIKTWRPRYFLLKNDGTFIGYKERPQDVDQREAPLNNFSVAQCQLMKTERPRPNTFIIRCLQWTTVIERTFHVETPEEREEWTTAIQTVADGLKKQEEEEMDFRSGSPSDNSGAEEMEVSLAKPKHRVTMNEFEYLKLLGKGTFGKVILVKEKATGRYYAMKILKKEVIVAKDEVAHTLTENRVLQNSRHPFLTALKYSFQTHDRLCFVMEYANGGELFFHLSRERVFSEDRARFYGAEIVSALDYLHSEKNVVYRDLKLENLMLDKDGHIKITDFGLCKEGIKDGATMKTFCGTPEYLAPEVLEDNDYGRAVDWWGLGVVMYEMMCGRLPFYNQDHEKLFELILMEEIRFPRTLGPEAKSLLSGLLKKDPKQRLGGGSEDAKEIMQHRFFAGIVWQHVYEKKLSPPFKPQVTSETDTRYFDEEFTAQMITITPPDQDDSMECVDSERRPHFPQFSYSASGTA

in vitro = assay type: cell-based; conditions: human
Protocol: The following cell lines were used: HELA (human cervical carcinoma), MCF7 (human breast adenocarcinoma), NIH 3T3 (mouse fibroblasts), HOS (human osteogenic sarcoma), HL 60 (human promyelocytic leukemia), G 361 (human malignant melanoma), K562 (human chronic myeloblastic leukemia), CEM (human lymphoblastoid leukaemia). Tested drugs were added to the cell cultures in six different concentration and kept at 37° C. and 5% CO2 for three days.
as §3, with “h. At the end of this period, the cells were fed for 1 h with Calcein AM and the fluorescence of the live cells was measured at 485 nm/538 nm (ex/em) with a Fluoroskan Ascent (Labsystems, Finland).” for “h.”

CDK7 = CDK7 (Homo sapiens, UniProt P50613); conditions: Knockaert et al 2000, Cohen 2003; cited from earlier work
CDK7, sequence (P50613 whole entry, species assumed): as the sequence (P50613 whole entry) above
CDK7, sequence (P51946 whole entry partner, species assumed): as the sequence (P51946 whole entry partner) above

MAPK1 [4] = conditions: Knockaert et al 2000, Cohen 2003; cited from earlier work
CDK1 and CDK2 = experiment: CDK inhibition, for CDK1 and CDK2 together; assay type: biochemical
Protocol: as §1, with “After 20 min incubation, the reactions were stopped by the addition of 5 μl of a 3% H3PO4, aliquots were spotted on P-81 phosphocellulose (Whatman, USA) that was subsequently washed 3× with 5% H3PO4 and finally air dried. The measurements of kinase inhibition employed digital image analyzer BAS-1800 (Fujifilm, Japan).” left out

[5] = tested on: HOS (human osteogenic sarcoma); experiment: In vitro cytotoxicity, Calcein AM, 72 h; assay type: cell-based; conditions: for IC50: Calcein AM, triplicates, read-out: IC50 (μM) HOS
Protocol: as §2, §3

[6] = tested on: G 361 (human malignant melanoma); experiment: In vitro cytotoxicity, Calcein AM, 72 h; assay type: cell-based; conditions: 72 h; for IC50: Calcein AM, triplicates, read-out: IC50 (μM) G361
Protocol: as §2, §3

[7] = tested on: K562 (human chronic myeloblastic leukemia); experiment: In vitro cytotoxicity, Calcein AM, 72 h; assay type: cell-based; conditions: 72 h; for IC50: Calcein AM, triplicates, read-out: IC50 (μM) K562
Protocol: as §2, §3

[8] = tested on: MCF7 (human breast adenocarcinoma); experiment: In vitro cytotoxicity, Calcein AM, 72 h; assay type: cell-based; conditions: 72 h; for IC50: Calcein AM, triplicates, read-out: IC50 (μM) MCF7
Protocol: as §2, §3

[9] = in the presence of 10 μM compound
[10] = G 361 cells (human malignant melanoma), 72 h, read-out: % of viable cells G361
[11] = HOS cells (human osteogenic sarcoma), read-out: % of viable cells HOS
[12] = K562 cells (human chronic myeloblastic leukemia), 72 h, read-out: % of viable cells K562
[13] = MCF7 cells (human breast adenocarcinoma), 72 h, read-out: % of viable cells MCF7

SAPK2α, sequence (Q16539 whole entry): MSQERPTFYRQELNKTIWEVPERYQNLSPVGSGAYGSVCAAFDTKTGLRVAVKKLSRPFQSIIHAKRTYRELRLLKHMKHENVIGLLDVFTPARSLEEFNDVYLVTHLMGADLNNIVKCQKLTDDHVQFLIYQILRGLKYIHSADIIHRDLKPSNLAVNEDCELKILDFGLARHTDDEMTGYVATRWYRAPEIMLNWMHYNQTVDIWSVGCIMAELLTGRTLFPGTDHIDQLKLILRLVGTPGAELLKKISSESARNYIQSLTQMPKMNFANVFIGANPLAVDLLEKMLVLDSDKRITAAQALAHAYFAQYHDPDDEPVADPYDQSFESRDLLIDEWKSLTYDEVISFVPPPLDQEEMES
c-Abl, sequence (P00519 whole entry): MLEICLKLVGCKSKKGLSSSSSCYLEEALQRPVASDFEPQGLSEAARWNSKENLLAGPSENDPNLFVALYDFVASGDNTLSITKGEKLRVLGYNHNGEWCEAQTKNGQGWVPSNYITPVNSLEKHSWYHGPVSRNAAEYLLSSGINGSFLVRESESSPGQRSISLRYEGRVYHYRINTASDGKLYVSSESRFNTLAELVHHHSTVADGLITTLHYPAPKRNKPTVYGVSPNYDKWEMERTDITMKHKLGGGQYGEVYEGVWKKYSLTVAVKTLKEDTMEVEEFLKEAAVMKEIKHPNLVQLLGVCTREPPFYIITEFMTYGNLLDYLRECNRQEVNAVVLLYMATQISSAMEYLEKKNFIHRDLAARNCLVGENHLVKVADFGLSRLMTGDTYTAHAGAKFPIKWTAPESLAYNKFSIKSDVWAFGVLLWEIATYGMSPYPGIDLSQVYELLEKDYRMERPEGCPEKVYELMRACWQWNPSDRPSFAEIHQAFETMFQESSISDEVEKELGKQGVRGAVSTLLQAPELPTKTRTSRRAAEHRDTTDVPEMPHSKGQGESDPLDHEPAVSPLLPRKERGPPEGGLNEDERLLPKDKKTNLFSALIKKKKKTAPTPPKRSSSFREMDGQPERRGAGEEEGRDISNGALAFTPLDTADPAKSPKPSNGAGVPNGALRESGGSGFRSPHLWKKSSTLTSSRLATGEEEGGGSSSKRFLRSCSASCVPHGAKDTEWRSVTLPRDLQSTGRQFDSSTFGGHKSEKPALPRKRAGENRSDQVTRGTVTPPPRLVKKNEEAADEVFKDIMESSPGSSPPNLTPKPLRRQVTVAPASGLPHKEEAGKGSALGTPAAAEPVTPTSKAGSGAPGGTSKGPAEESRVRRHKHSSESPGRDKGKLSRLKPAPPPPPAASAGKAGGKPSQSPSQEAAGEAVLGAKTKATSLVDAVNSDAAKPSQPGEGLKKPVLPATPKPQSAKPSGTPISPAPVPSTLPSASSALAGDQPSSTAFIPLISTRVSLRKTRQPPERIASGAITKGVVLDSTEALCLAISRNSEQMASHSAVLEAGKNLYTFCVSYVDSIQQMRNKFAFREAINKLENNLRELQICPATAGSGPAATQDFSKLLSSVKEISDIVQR

Compound: Nc1n[nH]c(N)c1N=Nc1ccc(O)cc1 [Compound 12b, 3,5-diamino-4-(4-hydroxy)phenylazo-pyrazole]
- % of kinase activity (SAPK2α): 82%
- % of kinase activity (c-Abl): 84%
- IC50 (CDK2/cyclin E): 3.5 µM
- % of kinase activity (CDK2/cyclin E; [9]): 31%
- IC50 (CDK1/cyclin B): 2.1 µM
- % of kinase activity (CDK1/cyclin B; [9]): 19%
- cell death by western blotting and flow cytometry (K562 cell line; 72 h treatment): significant cell death
- cell cycle distribution (K562 cell line; K562, 50 μM, after 12 h incubation): accumulation of cell population in G1
- sub-G1 peak / fragmented DNA (K562 cell line; K562, longer incubation period (48-72 h)): sub-G1 peak of cell fragments, containing fragmented DNA
- PARP cleavage fragment (western blot) [1]: revealed a 89 kDa peptide
- IC50 (p70S6K): ~10 µM
- % of kinase activity (p70S6K; [9]): 51%
- % of kinase activity (GSK3β): 81%
- % of kinase activity (CDK7/cyclin H): 71%
- % of kinase activity (MAPK1 [2]): 99%
- % of kinase activity (PKA): 67%
- viability at 72 h, 100 µM [3, 10]: 8.3%
- viability at 72 h, 100 µM [3, 11]: 22%
- viability at 72 h, 100 µM [3, 12]: 23%
- viability at 72 h, 100 µM [3, 13]: 20%
- % of kinase activity (CK2): 65%
- % of kinase activity (CHK1): 89%
- % of kinase activity (PKBα): 105%

Compound: CC[C@H](CO)Nc1nc(NCc2ccccc2)c2ncn(C(C)C)c2n1 [roscovitine]
- effect on CDK7 (in words) (CDK7): strong effect
- effect on MAPK1 (in words) (MAPK1 [4]): strong effect

Compound: Nc1n[nH]c(N)c1N=Nc1cccc2c1CCCC2 [Compound 30b]
- IC50 (CDK2/cyclin E): > 100 µM
- IC50 (CDK1/cyclin B): > 100 µM
- CDK inhibitory activity (in words) (CDK1 and CDK2): only a weak impact on CDK activity
- IC50 [5]: 92 ± 5 µM
- % of viable cells HOS ([5]; at 100 μM): (32 ± 6%)
- IC50 [6]: 77 ± 4 µM
- % of viable cells G361 ([6]; at 100 μM): (27 ± 5) %
- IC50 [7]: 55 ± 1 µM
- % of viable cells K562 ([7]; at 100 μM): (26 ± 7) %
- IC50 [8]: 81 ± 9 µM
- % of viable cells MCF7 ([8]; at 100 μM): (39 ± 10%)

Compound: NCc1ccc(/N=N/c2c(N)n[nH]c2N)cc1 [Compound 17b, 3,5-diamino-4-(4-aminomethyl)phenylazo-pyrazole]
- IC50 (CDK2/cyclin E): > 100 µM
- IC50 (CDK1/cyclin B): > 100 µM
- CDK inhibitory activity (in words) (CDK1 and CDK2): low activity (almost zero)

More lines, main results first:

- IC50 at 72 h (in vitro): > 100 µM
Compound: Cn1cnc2c(NCc3ccccc3)nc(NCCO)nc21 [olomoucine, reference compound]

- IC50 (CDK2/cyclin E): 6.1 µM
- IC50 (CDK1/cyclin B): 2.6 µM
Compound: Nc1n[nH]c(N)c1N=Nc1ccccc1[N+](=O)[O-] [Compound 7b, 3,5-diamino-4-(2-nitro)phenylazo-pyrazole]
- viability at 72 h, 100 µM [3, 10]: 58%
- viability at 72 h, 100 µM [3, 11]: 57%
- viability at 72 h, 100 µM [3, 12]: 48%
- viability at 72 h, 100 µM [3, 13]: 62%
- IC50 ([5]; Homo sapiens): > 100 µM
- IC50 ([6]; Homo sapiens, G-361): > 100 µM
- IC50 ([7]; Homo sapiens, K562): 100 ± 10 µM
- IC50 ([8]; Homo sapiens, MCF7): > 100 µM
